Tests used:
[1] = biological target: anti-cotinine antibody (SEQ ID NO: 11/12, rabbit variable region with human IgG1 Fc DE mutation); assay: SPR binding of anti-cotinine antibody to ARM compounds, Biacore T200, 37° C. (Example 202); settings: SPR Biacore T200, 37° C., pH 7.4, antibody SEQ ID NO: 11/12 captured on protein A; Kd in molar
Method in brief: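 Antibody captured on a protein A chip; ARM compounds injected at 100 μL/min (200 s association, 2000 s dissociation), 3-fold 5-point series from 200 nM, at 37 °C in HEPES pH 7.4 buffer with 0.005% P20 and 1% DMSO. Double-referenced sensorgrams fit 1:1 for kon, koff, Kd (koff/kon), residence time (1/koff); pKd averaged across runs.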

[2] = system: CCR2 expressing cells (CD11b+Ly6c+Hi) in peripheral blood; assay: In vivo depletion assay, flow cytometry of peripheral blood (Example 201); parameters: species or system human CCR2 knock-in mice (C57 background); settings: hCCR2 knock-in mice, IV 0.1 mpk compound + 10 mpk anti-cotinine antibody (SEQ ID NO: 13/14), peripheral blood at 48 hr
Method in brief: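 Mice dosed with compound formulated in saline/DMSO/PBS, with anti-cotinine antibody (rabbit variable region, mouse IgG2a Fc) where required, pre-incubated 30 min at room temperature. Terminal peripheral blood RBC-lysed, Fc-blocked, stained for CD45, CD3, CD11b, Ly6C, human CCR2 and 7AAD; percent depletion of CD11b+Ly6c+Hi cells determined by flow cytometry.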

| SMILES | pKd of Antibody for ARM Compound of Formula (I) [1] | % Depletion of CCR2 expressing cells [2] [%] |
| --- | --- | --- |
| CC(C)N(C)[C@@H]1CC[C@H](N2CC[C@H](Nc3ncnc4ccc(C(F)(F)F)cc34)C2=O)[C@H](NC(=O)[C@H]2CC[C@H](NC(=O)CCCO[C@H]3CC[C@H](OCCNC(=O)[C@H]4CC(=O)N(C)[C@@H]4c4cccnc4)CC3)CC2)C1 [Example 1, (2S,3S)-N-(2-(((1R,4S)-4-(4-(((1R,4R)-4-(((1R,2S,5R)-5-(Isopropyl(methyl)amino)-2-((S)-2-oxo-3-((6-(trifluoromethyl)quinazolin-4-yl)amino)pyrrolidin-1-yl)cyclohexyl)carbamoyl)cyclohexyl)amino)-4-oxobutoxy)cyclohexyl)oxy)ethyl)-1-methyl-5-oxo-2-(pyridin-3-yl)pyrrolidine-3-carboxamide] | 9.654 | 88.5 |
| CC(C)N(C)[C@@H]1CC[C@H](N2CC[C@H](Nc3ncnc4ccc(C(F)(F)F)cc34)C2=O)[C@H](NC(=O)[C@H]2CC[C@@H](NC(=O)CCCO[C@H]3CC[C@H](OCCNC(=O)[C@H]4CC(=O)N(C)[C@@H]4c4cccnc4)CC3)CC2)C1 [Example 5, (2S,3S)-N-(2-(((1R,4S)-4-(4-(((1S,4S)-4-(((1R,2S,5R)-5-(Isopropyl(methyl)amino)-2-((S)-2-oxo-3-((6-(trifluoromethyl)quinazolin-4-yl)amino)pyrrolidin-1-yl)cyclohexyl)carbamoyl)cyclohexyl)amino)-4-oxobutoxy)cyclohexyl)oxy)ethyl)-1-methyl-5-oxo-2-(pyridin-3-yl)pyrrolidine-3-carboxamide] | 9.19 | 91.05 |
| CC(C)N(C)[C@@H]1CC[C@H](N2CC[C@H](Nc3ncnc4ccc(C(F)(F)F)cc34)C2=O)[C@H](NC(=O)CCOCCNC(=O)CCCO[C@H]2CC[C@H](OCCNC(=O)[C@H]3CC(=O)N(C)[C@@H]3c3cccnc3)CC2)C1 [Example 7, (2S,3S)-N-(2-(((1r,4S)-4-(4-((2-(3-(((1R,2S,5R)-5-(Isopropyl(methyl)amino)-2-((S)-2-oxo-3-((6-(trifluoromethyl)quinazolin-4-yl)amino)pyrrolidin-1-yl)cyclohexyl)amino)-3-oxopropoxy)ethyl)amino)-4-oxobutoxy)cyclohexyl)oxy)ethyl)-1-methyl-5-oxo-2-(pyridin-3-yl)pyrrolidine-3-carboxamide] | 9.2515 | 47 |
| CN1C(=O)C[C@H](C(=O)NCCO[C@H]2CC[C@H](OCCCC(=O)N[C@H]3CC[C@H](C(=O)N[C@@H]4C[C@H](NC(C)(C)C)CC[C@@H]4N4CC[C@H](Nc5ncnc6ccc(C(F)(F)F)cc56)C4=O)CC3)CC2)[C@H]1c1cccnc1 [Example 10, (2S,3S)-N-(2-(((1R,4S)-4-(4-(((1R,4R)-4-(((1R,2S,5R)-5-(tert-Butylamino)-2-((S)-2-oxo-3-((6-(trifluoromethyl)quinazolin-4-yl)amino)pyrrolidin-1-yl)cyclohexyl)carbamoyl)cyclohexyl)amino)-4-oxobutoxy)cyclohexyl)oxy)ethyl)-1-methyl-5-oxo-2-(pyridin-3-yl)pyrrolidine-3-carboxamide] | 9.199 | 94.9 |
| CC(C)N(C)[C@@H]1CC[C@H](N2CC[C@H](Nc3ncnc4ccc(C(F)(F)F)cc34)C2=O)[C@H](NC(=O)[C@H]2CC[C@@H](NC(=O)CCOCCOCCNC(=O)CCNC(=O)[C@H]3CC(=O)N(C)[C@@H]3c3cccnc3)CC2)C1 [Example 16, (2S,3S)-N-(3-((2-(2-(3-(((1S,4s)-4-(((1R,2S,5R)-5-(Isopropyl(methyl)amino)-2-((S)-2-oxo-3-((6-(trifluoromethyl)quinazolin-4-yl)amino)pyrrolidin-1-yl)cyclohexyl)carbamoyl)cyclohexyl)amino)-3-oxopropoxy)ethoxy)ethyl)amino)-3-oxopropyl)-1-methyl-5-oxo-2-(pyridin-3-yl)pyrrolidine-3-carboxamide] | 9.287 | 74 |
| CC(C)N(C)[C@@H]1CC[C@H](N2CC[C@H](Nc3ncnc4ccc(C(F)(F)F)cc34)C2=O)[C@H](NC(=O)[C@H]2CC[C@@H](NC(=O)CCCC(=O)NCCCOCCCNC(=O)[C@H]3CC(=O)N(C)[C@@H]3c3cccnc3)CC2)C1 [Example 18, N^1-((1S,4s)-4-(((1R,2S,5R)-5-(Isopropyl(methyl)amino)-2-((S)-2-oxo-3-((6-(trifluoromethyl)quinazolin-4-yl)amino)pyrrolidin-1-yl)cyclohexyl)carbamoyl)cyclohexyl)-N^5-(3-(3-((2S,3S)-1-methyl-5-oxo-2-(pyridin-3-yl)pyrrolidine-3-carboxamido)propoxy)propyl)glutaramide] | 9.0895 | 88 |
| CC(C)N(C)[C@@H]1CC[C@H](N2CC[C@H](Nc3ncnc4ccc(C(F)(F)F)cc34)C2=O)[C@H](NC(=O)[C@H]2CC[C@H](NC(=O)CCCC(=O)NCCCOCCCNC(=O)[C@H]3CC(=O)N(C)[C@@H]3c3cccnc3)CC2)C1 [Example 19, N1-((1R,4r)-4-(((1R,2S,5R)-5-(Isopropyl(methyl)amino)-2-((S)-2-oxo-3-((6-(trifluoromethyl)quinazolin-4-yl)amino)pyrrolidin-1-yl)cyclohexyl)carbamoyl)cyclohexyl)-N5-(3-(3-((2S,3S)-1-methyl-5-oxo-2-(pyridin-3-yl)pyrrolidine-3-carboxamido)propoxy)propyl)glutaramide] | 9.19 | 59 |
| CN1C(=O)C[C@H](C(=O)NCCOCCOCCOCCC(=O)N[C@H]2CC[C@@H](C(=O)N[C@@H]3C[C@H](NC(C)(C)C)CC[C@@H]3N3CC[C@H](Nc4ncnc5ccc(C(F)(F)F)cc45)C3=O)CC2)[C@H]1c1cccnc1 [Example 23, (2S,3S)-N-(2-(2-(2-(3-(((1S,4s)-4-(((1R,2S,5R)-5-(tert-Butylamino)-2-((S)-2-oxo-3-((6-(trifluoromethyl)quinazolin-4-yl)amino)pyrrolidin-1-yl)cyclohexyl)carbamoyl)cyclohexyl)amino)-3-oxopropoxy)ethoxy)ethoxy)ethyl)-1-methyl-5-oxo-2-(pyridin-3-yl)pyrrolidine-3-carboxamide] | 9.2166 | 90.7 |
| CC(C)N(C)[C@@H]1CC[C@H](N2CC[C@H](Nc3ncnc4ccc(C(F)(F)F)cc34)C2=O)[C@H](NC(=O)[C@H]2C[C@@H](NC(=O)CCOCCOCCOCCNC(=O)[C@H]3CC(=O)N(C)[C@@H]3c3cccnc3)C2)C1 [Example 24, (2S,3S)-N-(2-(2-(2-(3-(((1S,3s)-3-(((1R,2S,5R)-5-(Isopropyl(methyl)amino)-2-((S)-2-oxo-3-((6-(trifluoromethyl)quinazolin-4-yl)amino)pyrrolidin-1-yl)cyclohexyl)carbamoyl)cyclobutyl)amino)-3-oxopropoxy)ethoxy)ethoxy)ethyl)-1-methyl-5-oxo-2-(pyridin-3-yl)pyrrolidine-3-carboxamide] | 9.4425 | 89.47 |
| CC(C)N(C)[C@@H]1CC[C@H](N2CC[C@H](Nc3ncnc4ccc(C(F)(F)F)cc34)C2=O)[C@H](NC(=O)[C@H]2CC[C@@H](NC(=O)CCOCCOCCOCCNC(=O)[C@H]3CC(=O)N(C)[C@@H]3c3cccnc3)CC2)C1 [Example 28, (2S,3S)-N-(2-(2-(2-(3-(((1S,4s)-4-(((1R,2S,5R)-5-(Isopropyl(methyl)amino)-2-((S)-2-oxo-3-((6-(trifluoromethyl)quinazolin-4-yl)amino)pyrrolidin-1-yl)cyclohexyl)carbamoyl)cyclohexyl)amino)-3-oxopropoxy)ethoxy)ethoxy)ethyl)-1-methyl-5-oxo-2-(pyridin-3-yl)pyrrolidine-3-carboxamide] | 9.273 | 87.1 |
| CC(C)N(C)[C@@H]1CC[C@H](N2CC[C@H](Nc3ncnc4ccc(C(F)(F)F)cc34)C2=O)[C@H](NC(=O)CCOCCOCCOCCOCCOCCNC(=O)[C@H]2CC(=O)N(C)[C@@H]2c2cccnc2)C1 [Example 40, (2S,3S)-N-(18-(((1R,2S,5R)-5-(Isopropyl(methyl)amino)-2-((S)-2-oxo-3-((6-(trifluoromethyl)quinazolin-4-yl)amino)pyrrolidin-1-yl)cyclohexyl)amino)-18-oxo-3,6,9,12,15-pentaoxaoctadecyl)-1-methyl-5-oxo-2-(pyridin-3-yl)pyrrolidine-3-carboxamide] | 9.4525 |  |
| CC(C)N(C)[C@@H]1CC[C@H](N2CC[C@H](Nc3ncnc4ccc(C(F)(F)F)cc34)C2=O)[C@H](NC(=O)CCOCCOCCOCCOCCOCCOCCNC(=O)[C@H]2CC(=O)N(C)[C@@H]2c2cccnc2)C1 [Example 41, (2S,3S)-N-(21-(((1R,2S,5R)-5-(isopropyl(methyl)amino)-2-((S)-2-oxo-3-((6-(trifluoromethyl)quinazolin-4-yl)amino)pyrrolidin-1-yl)cyclohexyl)amino)-21-oxo-3,6,9,12,15,18-hexaoxahenicosyl)-1-methyl-5-oxo-2-(pyridin-3-yl)pyrrolidine-3-carboxamide] | 9.3615 |  |

Source: patent US12521393B2, “Cytotoxicity targeting chimeras for CCR2-expressing cells” (GLAXOSMITHKLINE INTELLECTUAL PROPERTY DEVELOPMENT LIMITED, priority 2021, dated 2026)
